Assay results: PubChem BioAssay (NCI)
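Grown in 96-well plates, cells were treated for 48 hours with each compound at five concentrations. Insufficient inhibition: endpoint recorded as highest concentration tested. Abbreviation: GI50, concentration required for 50% inhibition of growth. TGI: total growth inhibition.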

Assays:
Assay in all cases: NCI tumour cell line growth inhibition, 48 h
[1] = system: ACHN renal
[2] = system: MALME-3M melanoma
[3] = system: SK-MEL-5 melanoma
[4] = system: SK-MEL-28 melanoma
[5] = system: OVCAR-3 ovarian
[6] = system: SNB-75 CNS
[7] = system: NCI-H460 lung
[8] = system: KM12 colon
[9] = system: MDA-MB-231 breast
[10] = system: MDA-MB-435

| SMILES | GI50 [1] | TGI [1] | GI50 [2] | TGI [2] | GI50 [3] | TGI [3] | GI50 [4] | TGI [4] | GI50 [5] | TGI [5] | GI50 [6] | TGI [6] | GI50 [7] | TGI [7] | GI50 [8] | TGI [8] | GI50 [9] | TGI [9] | GI50 [10] | TGI [10] |
| --- | --- | --- | --- | --- | --- | --- | --- | --- | --- | --- | --- | --- | --- | --- | --- | --- | --- | --- | --- | --- |
| Cc1[cH-]c(=O)n(-c2ccccc2)n1.[Au+].[Au].c1ccc([PH+](c2ccccc2)c2ccccc2)cc1.c1ccc([PH+](c2ccccc2)c2ccccc2)cc1 | 22300 nM | 58.6 µM | 9.61 µM | 31.1 µM | 16800 nM | 36.2 µM | 2520 nM | 14.9 µM | 16700 nM | 39.1 µM | 14.7 µM | 39.3 µM | 14.4 µM | 37.7 µM | 36700 nM | > 100 µM | – | – | – | – |
| CCOC(=O)n1cc(C2=C(c3ccc(OC)c(OC)c3)COC2=O)c2ccccc21 | 61.5 nM | > 73.1 µM | 0.0666 µM | > 100 µM | 41 nM | 0.48 µM | 271 nM | > 100 µM | 33.2 nM | 0.114 µM | – | – | 0.122 µM | 18.3 µM | 44.1 nM | 14.1 µM | 160 nM | > 100 µM | – | – |
| S=P1(Oc2ccccc2)NNP2(=NP(N3CC3)(N3CC3)=NP(N3CC3)(N3CC3)=N2)NN1 (stereo unspecified) | – | > 100 µM | – | > 100 µM | – | > 100 µM | – | > 100 µM | – | > 100 µM | – | > 100 µM | – | > 100 µM | – | > 100 µM | – | – | – | – |
| CC(C)[C@@H]1NC(=O)[C@]2(C)CSC(=N2)c2ccnc(c2)CNC(=O)C[C@@H](/C=C/CCS)OC1=O | 2460 nM | 14.9 µM | – | – | 71.5 nM | 0.323 µM | 119 nM | 3.46 µM | 833 nM | 6.87 µM | 0.0912 µM | > 100 µM | < 0.0253 µM | > 100 µM | 85.7 nM | > 86.1 µM | 472 nM | > 100 µM | 111 nM | 6.13 µM |
| CC#Cc1ccc(-c2ccccc2)s1 | – | > 100 µM | – | – | – | > 100 µM | – | > 100 µM | – | > 100 µM | – | > 100 µM | – | > 100 µM | – | > 100 µM | – | > 100 µM | – | > 100 µM |
| O=C1C(C(Nc2ccccc2)c2ccccc2)=C([O-])c2ccccc21.O=C1C(C(Nc2ccccc2)c2ccccc2)=C([O-])c2ccccc21.[Cu+2] (stereo unspecified) | 86200 nM | > 100 µM | 65.8 µM | > 100 µM | 7540 nM | > 100 µM | > 100000 nM | > 100 µM | – | – | 17.2 µM | 92.1 µM | 40 µM | > 100 µM | 32200 nM | > 100 µM | – | – | – | – |
| C[C@@H]1CC[C@H]2C(C)(C)[C@H]3C[C@@]12CC[C@@]3(C)O | – | > 100 µM | – | – | – | > 100 µM | – | > 100 µM | – | > 100 µM | – | > 100 µM | – | 34.9 µM | – | > 100 µM | – | > 100 µM | – | > 100 µM |
| CCCOc1nc(N)c2cnn(C3CCCCO3)c2n1 (stereo unspecified) | – | > 100 µM | – | > 100 µM | – | > 100 µM | – | > 100 µM | – | > 100 µM | – | > 100 µM | – | > 100 µM | – | > 100 µM | – | – | – | – |
| CN(C)C=Nc1nc(=O)n(C2CCC(CO)O2)cc1F (stereo unspecified) | – | > 100 µM | – | > 100 µM | – | > 100 µM | – | > 100 µM | – | > 100 µM | – | > 100 µM | – | > 100 µM | – | > 100 µM | – | – | – | – |
| CC1(C)CC(c2c[nH]c3ccccc23)=CC2=Nc3ccccc3C21O (stereo unspecified) | – | > 100 µM | – | > 100 µM | – | > 100 µM | – | 77.7 µM | – | > 100 µM | – | 25.4 µM | – | > 100 µM | – | > 100 µM | – | – | – | – |
| CN(C)CC1CCCC/C1=N/O (stereo unspecified) | – | > 100 µM | – | > 100 µM | – | > 100 µM | – | > 100 µM | – | > 100 µM | – | > 100 µM | – | > 100 µM | – | > 100 µM | – | – | – | – |
| C#Cc1cccc(Nc2nc3cc([N+](=O)[O-])ccc3nc2Nc2ccc(O)cc2)c1 | 1610 nM | 4.01 µM | 1.93 µM | 4.32 µM | 1790 nM | 3.23 µM | 1780 nM | 3.34 µM | 1870 nM | 4.14 µM | 1.36 µM | 3.42 µM | – | – | 1830 nM | 3.89 µM | 1800 nM | 3.8 µM | 1670 nM | 3.39 µM |
| CN(C)CC1CCC/C1=N/OC(=O)c1ccccc1 (stereo unspecified) | – | > 100 µM | – | – | – | > 100 µM | – | > 100 µM | – | > 100 µM | – | > 100 µM | – | > 100 µM | – | – | – | – | – | – |
| O=c1c2cccnc2ncn1CCN1CCCCC1 | – | > 100 µM | – | > 100 µM | – | > 100 µM | – | > 100 µM | – | > 100 µM | – | > 100 µM | – | > 100 µM | – | > 100 µM | – | – | – | – |
| N#CCCC[Si]12OCCN(CCO1)CCO2 | – | > 100 µM | – | > 100 µM | – | > 100 µM | – | > 100 µM | – | > 100 µM | – | > 100 µM | – | > 100 µM | – | > 100 µM | – | – | – | – |
| COc1ccc(C(c2cc(OC)c(OC)c(OC)c2)n2cncn2)cc1O (stereo unspecified) | 653 nM | > 100 µM | – | – | 440 nM | 38.3 µM | – | – | 323 nM | 1.48 µM | – | – | 0.414 µM | > 100 µM | 418 nM | > 100 µM | 1500 nM | > 100 µM | – | – |
| NCCNCCNCCN | > 100000 nM | > 100 µM | – | – | > 100000 nM | > 100 µM | > 100000 nM | > 100 µM | > 100000 nM | > 100 µM | > 100 µM | > 100 µM | > 100 µM | > 100 µM | > 100000 nM | > 100 µM | > 100000 nM | > 100 µM | > 100000 nM | > 100 µM |
| Clc1ccc2cccc3c2c1C1OC3c2ccccc21 (stereo unspecified) | – | > 100 µM | – | > 100 µM | – | – | – | > 100 µM | – | > 100 µM | – | > 100 µM | – | – | – | > 100 µM | – | – | – | – |
| Cc1nnc2ccnn2c1C | > 100000 nM | > 100 µM | – | – | 23800 nM | > 100 µM | > 100000 nM | > 100 µM | > 100000 nM | > 100 µM | > 100 µM | > 100 µM | > 100 µM | > 100 µM | > 100000 nM | > 100 µM | > 100000 nM | > 100 µM | > 100000 nM | > 100 µM |
